According to the supplement of paper PMC8967900:

Tested on: CCRF-HSB2
Assay: selective drug sensitivity score (sDSS, relative to normal bone marrow) (sDSS (score)); higher = more potent and effective on the cell line relative to normal bone marrow cells
Settings: 72 h
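Further: ALL cell lines in 384-well plates, five doses spanning 10,000-fold, each plate scaled between vehicle and 100 µmol/L benzalkonium chloride controls, sDSS an adapted area-under-curve metric.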

Structure (SMILES) | selective drug sensitivity score
CN(C)Cc1ccc(S(=O)(=O)n2ccc(/C=C/C(=O)NO)c2)cc1 [Resminostat] (top concentration 10000 nM) | 2.24
COc1cc(OC)c(/C=C/S(=O)(=O)Cc2ccc(OC)c(NCC(=O)O)c2)c(OC)c1 [Rigosertib] (top concentration 10000 nM) | 14.6
COc1ccc(CCc2nc3cc(-c4c(C)noc4C)ccc3n2C[C@H](C)N2CCOCC2)cc1Cl [SGC-CBP30] (top concentration 25000 nM) | 2.38
CCS(=O)(=O)c1cccc(-c2cc(C(=O)NC3CCN(C)CC3)c(C)c3[nH]c4ncc(C)cc4c23)c1 [TAK-901] (top concentration 1000 nM) | 13.6
Nc1nc(NC2CC2)cc(-c2cccc(Cl)c2Cl)n1 [TH588] (top concentration 25000 nM) | 8.42
CC(=O)Nc1ccc(C(=O)Nc2ccccc2N)cc1 [Tacedinaline] (top concentration 1000 nM) | 2.98
Cn1ncnc1[C@H]1c2n[nH]c(=O)c3cc(F)cc(c23)N[C@@H]1c1ccc(F)cc1 [Talazoparib] (top concentration 1000 nM) | 7.68
COc1cccc2c1c(O)c(C(=O)N(C)c1ccc(C(F)(F)F)cc1)c(=O)n2C [Tasquinimod] (top concentration 10000 nM) | 2.38
Nc1nc2[nH]cnc2c(=S)[nH]1 [Thioguanine] (top concentration 10000 nM) | 14.7

Tested on: KASUMI-9
Assay: as above
Settings: 72 h

Structure (SMILES) | selective drug sensitivity score
C1=N/C2=N/c3ccc(OCCN4CCCC4)c(c3)COC/C=C/COCc3cccc(c3)C(=C1)N2 [Pacritinib] (top concentration 10000 nM) | -0.9
Cc1[nH]c2ccccc2c1CCNCc1ccc(/C=C/C(=O)NO)cc1 [Panobinostat] (top concentration 1000 nM) | 11.7
Cc1ccc(Nc2nccc(N(C)c3ccc4c(C)n(C)nc4c3)n2)cc1S(N)(=O)=O [Pazopanib] (top concentration 10000 nM) | 3.64
Nc1nc2[nH]cc(CCc3ccc(C(=O)N[C@@H](CCC(=O)O)C(=O)O)cc3)c2c(=O)[nH]1 [Pemetrexed] (top concentration 10000 nM) | 18.6
Cc1ccc(C(=O)Nc2ccc(CN3CCN(C)CC3)c(C(F)(F)F)c2)cc1C#Cc1cnc2cccnn12 [Ponatinib] (top concentration 1000 nM) | 5.42
C[C@]12C=CC(=O)C=C1CC[C@@H]1[C@@H]2[C@@H](O)C[C@@]2(C)[C@H]1CC[C@]2(O)C(=O)CO [Prednisolone] (top concentration 10000 nM) | 2
CC(C)(C)c1cc(NC(=O)Nc2ccc(-c3cn4c(n3)sc3cc(OCCN5CCOCC5)ccc34)cc2)no1 [Quizartinib] (top concentration 1000 nM) | -0.02
Nc1cc(F)ccc1NC(=O)/C=C/c1cnn(C/C=C/c2ccccc2)c1 [RGFP966] (top concentration 10000 nM) | 13.5
CNC(=O)c1cc(Oc2ccc(NC(=O)Nc3ccc(Cl)c(C(F)(F)F)c3)c(F)c2)ccn1 [Regorafenib] (top concentration 10000 nM) | 2.04
CN(C)Cc1ccc(S(=O)(=O)n2ccc(/C=C/C(=O)NO)c2)cc1 [Resminostat] (top concentration 10000 nM) | 10.2
COc1cc(OC)c(/C=C/S(=O)(=O)Cc2ccc(OC)c(NCC(=O)O)c2)c(OC)c1 [Rigosertib] (top concentration 10000 nM) | 18.3
COc1ccc(CCc2nc3cc(-c4c(C)noc4C)ccc3n2C[C@H](C)N2CCOCC2)cc1Cl [SGC-CBP30] (top concentration 25000 nM) | 5.58
CCS(=O)(=O)c1cccc(-c2cc(C(=O)NC3CCN(C)CC3)c(C)c3[nH]c4ncc(C)cc4c23)c1 [TAK-901] (top concentration 1000 nM) | 10.8
Nc1nc(NC2CC2)cc(-c2cccc(Cl)c2Cl)n1 [TH588] (top concentration 25000 nM) | 7.92
CC(=O)Nc1ccc(C(=O)Nc2ccccc2N)cc1 [Tacedinaline] (top concentration 1000 nM) | 4.38
Cn1ncnc1[C@H]1c2n[nH]c(=O)c3cc(F)cc(c23)N[C@@H]1c1ccc(F)cc1 [Talazoparib] (top concentration 1000 nM) | 8.98
COc1cccc2c1c(O)c(C(=O)N(C)c1ccc(C(F)(F)F)cc1)c(=O)n2C [Tasquinimod] (top concentration 10000 nM) | -0.42
Nc1nc2[nH]cnc2c(=S)[nH]1 [Thioguanine] (top concentration 10000 nM) | 11.2

Tested on: ALL-SIL
Assay: as above
Settings: 72 h

Structure (SMILES) | selective drug sensitivity score
C1=N/C2=N/c3ccc(OCCN4CCCC4)c(c3)COC/C=C/COCc3cccc(c3)C(=C1)N2 [Pacritinib] (top concentration 10000 nM) | -3.6
Cc1[nH]c2ccccc2c1CCNCc1ccc(/C=C/C(=O)NO)cc1 [Panobinostat] (top concentration 1000 nM) | 6.04
Cc1ccc(Nc2nccc(N(C)c3ccc4c(C)n(C)nc4c3)n2)cc1S(N)(=O)=O [Pazopanib] (top concentration 10000 nM) | 2.64
Nc1nc2[nH]cc(CCc3ccc(C(=O)N[C@@H](CCC(=O)O)C(=O)O)cc3)c2c(=O)[nH]1 [Pemetrexed] (top concentration 10000 nM) | 15.5
Cc1ccc(C(=O)Nc2ccc(CN3CCN(C)CC3)c(C(F)(F)F)c2)cc1C#Cc1cnc2cccnn12 [Ponatinib] (top concentration 1000 nM) | 41.7
C[C@]12C=CC(=O)C=C1CC[C@@H]1[C@@H]2[C@@H](O)C[C@@]2(C)[C@H]1CC[C@]2(O)C(=O)CO [Prednisolone] (top concentration 10000 nM) | 8.9
CC(C)(C)c1cc(NC(=O)Nc2ccc(-c3cn4c(n3)sc3cc(OCCN5CCOCC5)ccc34)cc2)no1 [Quizartinib] (top concentration 1000 nM) | 3.48
Nc1cc(F)ccc1NC(=O)/C=C/c1cnn(C/C=C/c2ccccc2)c1 [RGFP966] (top concentration 10000 nM) | 12.4
CNC(=O)c1cc(Oc2ccc(NC(=O)Nc3ccc(Cl)c(C(F)(F)F)c3)c(F)c2)ccn1 [Regorafenib] (top concentration 10000 nM) | 10
CN(C)Cc1ccc(S(=O)(=O)n2ccc(/C=C/C(=O)NO)c2)cc1 [Resminostat] (top concentration 10000 nM) | 6.64
COc1cc(OC)c(/C=C/S(=O)(=O)Cc2ccc(OC)c(NCC(=O)O)c2)c(OC)c1 [Rigosertib] (top concentration 10000 nM) | 13.1
COc1ccc(CCc2nc3cc(-c4c(C)noc4C)ccc3n2C[C@H](C)N2CCOCC2)cc1Cl [SGC-CBP30] (top concentration 25000 nM) | 4.68
CCS(=O)(=O)c1cccc(-c2cc(C(=O)NC3CCN(C)CC3)c(C)c3[nH]c4ncc(C)cc4c23)c1 [TAK-901] (top concentration 1000 nM) | 15.3
Nc1nc(NC2CC2)cc(-c2cccc(Cl)c2Cl)n1 [TH588] (top concentration 25000 nM) | 14.7
CC(=O)Nc1ccc(C(=O)Nc2ccccc2N)cc1 [Tacedinaline] (top concentration 1000 nM) | 6.08
Cn1ncnc1[C@H]1c2n[nH]c(=O)c3cc(F)cc(c23)N[C@@H]1c1ccc(F)cc1 [Talazoparib] (top concentration 1000 nM) | 3.48
COc1cccc2c1c(O)c(C(=O)N(C)c1ccc(C(F)(F)F)cc1)c(=O)n2C [Tasquinimod] (top concentration 10000 nM) | 3.48
Nc1nc2[nH]cnc2c(=S)[nH]1 [Thioguanine] (top concentration 10000 nM) | 12.8
